Measured values: patent US20110105565A1, “WATER SOLUBLE SMALL MOLECULE INHIBITORS OF THE CYSTIC FIBROSIS TRANSMEMBRANE CONDUCTANCE REGULATOR” (THE REGENTS OF THE UNIVERSITY OF CALIFORNIA, priority 2008, published 2011)
“Also recorded” adds a separate entry of the source. Read-outs that look alike come from different tables or passages of the source.

Tests used:
[1] = test system: embryonic kidneys; test: Embryonic kidney organ culture model (8-Br-cAMP-induced cysts); type: cell-based, mouse; details: for kidney length after 4 days in culture: absence of 8-Br-cAMP; for cyst formation in embryonic kidneys (in words): 100 μM 8-Br-cAMP, 4 days
From the text: An embryonic kidney organ culture model was used to further evaluate compounds T08 and G07. Embryonic kidney culture models permit organotypic growth and differentiation of renal tissue in defined media without the confounding effects of circulating hormones and glomerular filtration (see, e.g., Magenheimer et al., J Am Soc Nephrol 17: 3424-37, 2006; and Gupta et al., Kidney Int 63: 365-376, 2003). In addition, the early mouse kidney tubule in this model has an intrinsic capacity to secrete fluid in response to cAMP by a CFTR-dependent mechanism (Magenheimer et al.), allowing the evaluation of CFTR inhibitors in particular.
Mouse embryos were obtained at embryonic day 13.5 (E13.5). Metanephroi were dissected and placed on transparent Falcon […] porous cell culture inserts. To the culture inserts was added DMEM/Ham's F-12 nutrient medium supplemented with 2 mM L-glutamine, 10 mM HEPES, 5 μg/ml insulin, 5 μg/ml transferrin, 2.8 nM selenium, 25 ng/ml prostaglandin E, 32 pg/ml T3, 250 U/ml penicillin and 250 μg/ml streptomycin. Kidneys were maintained in a 37° C. humidified CO2 incubator, and were cultured for 4 days in the absence or presence of 100 μM 8-Br-cAMP. Culture medium containing 100 μM 8-Br-cAMP, with or without CFTR inhibitors, was replaced (in the lower chamber) every 12 hours.
Kidneys were photographed using a Nikon inverted microscope (Nikon TE 2000-S) equipped with 2× objective lens, 520 nm bandpass filter, and high-resolution PixeLINK color CCD camera. […] Cyst sizes in micrographs of metanephroi were determined using MATLAB 7.0 software. A masking procedure was used to highlight all pixels of similar intensity within each cyst. Fractional cyst area was calculated as total cyst area divided by total kidney area. Cysts with diameters >50 μm were included in the analysis. Image acquisition and analysis was done without knowledge of treatment condition.

[2] = biological target: human wildtype CFTR (Homo sapiens, UniProt P13569); test: Short-circuit current measurements, apical chloride current in FRT cells; type: cell-based; parameters: expressed in transfected cells; host or cells: FRT (Fisher rat thyroid) cells
Sequence of human wildtype CFTR (P13569 whole entry): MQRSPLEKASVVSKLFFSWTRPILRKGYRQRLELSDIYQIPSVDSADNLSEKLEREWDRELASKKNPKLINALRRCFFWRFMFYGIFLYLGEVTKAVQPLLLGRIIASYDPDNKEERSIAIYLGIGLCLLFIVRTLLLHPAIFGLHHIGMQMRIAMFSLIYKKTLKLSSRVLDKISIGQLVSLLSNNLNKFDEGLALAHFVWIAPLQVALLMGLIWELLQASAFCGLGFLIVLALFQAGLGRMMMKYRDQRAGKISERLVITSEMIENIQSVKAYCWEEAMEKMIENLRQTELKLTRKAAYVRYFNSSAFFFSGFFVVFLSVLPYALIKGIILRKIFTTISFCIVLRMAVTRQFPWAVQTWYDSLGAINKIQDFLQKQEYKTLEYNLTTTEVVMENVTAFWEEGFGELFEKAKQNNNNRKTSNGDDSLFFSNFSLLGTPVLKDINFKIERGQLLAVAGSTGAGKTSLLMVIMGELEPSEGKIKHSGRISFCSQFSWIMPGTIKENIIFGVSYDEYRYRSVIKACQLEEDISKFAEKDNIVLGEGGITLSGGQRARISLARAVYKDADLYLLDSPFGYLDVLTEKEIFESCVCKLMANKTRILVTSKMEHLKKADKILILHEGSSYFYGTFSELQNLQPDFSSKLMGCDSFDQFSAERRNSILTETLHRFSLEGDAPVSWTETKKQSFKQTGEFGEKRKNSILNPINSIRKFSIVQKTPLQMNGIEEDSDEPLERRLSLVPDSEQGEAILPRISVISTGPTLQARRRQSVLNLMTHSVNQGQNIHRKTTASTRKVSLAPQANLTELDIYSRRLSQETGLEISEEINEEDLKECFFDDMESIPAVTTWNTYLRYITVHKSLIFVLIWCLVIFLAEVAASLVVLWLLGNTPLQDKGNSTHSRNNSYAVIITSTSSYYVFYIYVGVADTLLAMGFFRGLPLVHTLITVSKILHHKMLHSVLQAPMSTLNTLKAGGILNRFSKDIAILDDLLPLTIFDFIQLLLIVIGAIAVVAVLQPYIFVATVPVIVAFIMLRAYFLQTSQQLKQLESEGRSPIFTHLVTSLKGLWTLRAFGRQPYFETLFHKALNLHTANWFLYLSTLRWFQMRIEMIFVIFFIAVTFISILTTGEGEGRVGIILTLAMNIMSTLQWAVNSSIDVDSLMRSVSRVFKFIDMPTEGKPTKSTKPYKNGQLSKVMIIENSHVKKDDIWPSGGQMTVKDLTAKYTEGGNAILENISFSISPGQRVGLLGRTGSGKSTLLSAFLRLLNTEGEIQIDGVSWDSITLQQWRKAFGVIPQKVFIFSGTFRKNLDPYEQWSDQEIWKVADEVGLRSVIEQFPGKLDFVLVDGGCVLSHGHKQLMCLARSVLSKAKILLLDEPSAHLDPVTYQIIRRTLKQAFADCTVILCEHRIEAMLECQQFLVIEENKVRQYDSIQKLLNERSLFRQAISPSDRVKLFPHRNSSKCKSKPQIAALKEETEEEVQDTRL
Protocol: Short-circuit current measurements. FRT cells (stably expressing human wildtype CFTR) were cultured on [sequence] filters with 1 cm^2 surface area (Corning-Costar) to resistance >1,000 Ω·cm^2 as described (see, e.g., Ma et al., J. Clin. Invest. 110:1651-1658 ((2002)); Sonawane et al., FASEB J. 20:130-132 (2006)). Filters were mounted in an Easymount Chamber System (Physiologic Instruments, San Diego). For apical current measurements, the basolateral hemichamber contained (in mM): 130 NaCl, 2.7 KCl, 1.5 KH2PO4, 1 CaCl2, 0.5 MgCl2, 10 Na-HEPES, 10 glucose (pH 7.3). The basolateral membrane was permeabilized with amphotericin B (250 μg/ml) for 30 min. In the apical solution 65 mM NaCl was replaced by sodium gluconate, and CaCl2 was increased to 2 mM. Solutions were bubbled with 95% O2/5% CO2 and maintained at 37° C. Current was recorded using a DVC-1000 voltage-clamp (World Precision Instruments) using Ag/AgCl electrodes and 1 M KCl agar bridges.
CFTR was stimulated by cAMP agonist forskolin and increasing concentration of test compounds was added.

[3] = biological target: T1, CFTR (Canis lupus familiaris, UniProt Q5U820); test: Short-circuit current measurements in MDCK cells; type: cell-based, Canine; details: for IC50: after CFTR stimulation by forskolin, read-out: IC50, inhibition of short-circuit current in MDCK cells; for CFTR expression, short-circuit current after incubation (in words): 10 μM, 1 or 48 hour incubation, washout 1 hour
T1 construct: MDCK cells, which endogenously express CFTR; endogenous in cells; host or cells: MDCK cells
T1 sequence (Q5U820 whole entry): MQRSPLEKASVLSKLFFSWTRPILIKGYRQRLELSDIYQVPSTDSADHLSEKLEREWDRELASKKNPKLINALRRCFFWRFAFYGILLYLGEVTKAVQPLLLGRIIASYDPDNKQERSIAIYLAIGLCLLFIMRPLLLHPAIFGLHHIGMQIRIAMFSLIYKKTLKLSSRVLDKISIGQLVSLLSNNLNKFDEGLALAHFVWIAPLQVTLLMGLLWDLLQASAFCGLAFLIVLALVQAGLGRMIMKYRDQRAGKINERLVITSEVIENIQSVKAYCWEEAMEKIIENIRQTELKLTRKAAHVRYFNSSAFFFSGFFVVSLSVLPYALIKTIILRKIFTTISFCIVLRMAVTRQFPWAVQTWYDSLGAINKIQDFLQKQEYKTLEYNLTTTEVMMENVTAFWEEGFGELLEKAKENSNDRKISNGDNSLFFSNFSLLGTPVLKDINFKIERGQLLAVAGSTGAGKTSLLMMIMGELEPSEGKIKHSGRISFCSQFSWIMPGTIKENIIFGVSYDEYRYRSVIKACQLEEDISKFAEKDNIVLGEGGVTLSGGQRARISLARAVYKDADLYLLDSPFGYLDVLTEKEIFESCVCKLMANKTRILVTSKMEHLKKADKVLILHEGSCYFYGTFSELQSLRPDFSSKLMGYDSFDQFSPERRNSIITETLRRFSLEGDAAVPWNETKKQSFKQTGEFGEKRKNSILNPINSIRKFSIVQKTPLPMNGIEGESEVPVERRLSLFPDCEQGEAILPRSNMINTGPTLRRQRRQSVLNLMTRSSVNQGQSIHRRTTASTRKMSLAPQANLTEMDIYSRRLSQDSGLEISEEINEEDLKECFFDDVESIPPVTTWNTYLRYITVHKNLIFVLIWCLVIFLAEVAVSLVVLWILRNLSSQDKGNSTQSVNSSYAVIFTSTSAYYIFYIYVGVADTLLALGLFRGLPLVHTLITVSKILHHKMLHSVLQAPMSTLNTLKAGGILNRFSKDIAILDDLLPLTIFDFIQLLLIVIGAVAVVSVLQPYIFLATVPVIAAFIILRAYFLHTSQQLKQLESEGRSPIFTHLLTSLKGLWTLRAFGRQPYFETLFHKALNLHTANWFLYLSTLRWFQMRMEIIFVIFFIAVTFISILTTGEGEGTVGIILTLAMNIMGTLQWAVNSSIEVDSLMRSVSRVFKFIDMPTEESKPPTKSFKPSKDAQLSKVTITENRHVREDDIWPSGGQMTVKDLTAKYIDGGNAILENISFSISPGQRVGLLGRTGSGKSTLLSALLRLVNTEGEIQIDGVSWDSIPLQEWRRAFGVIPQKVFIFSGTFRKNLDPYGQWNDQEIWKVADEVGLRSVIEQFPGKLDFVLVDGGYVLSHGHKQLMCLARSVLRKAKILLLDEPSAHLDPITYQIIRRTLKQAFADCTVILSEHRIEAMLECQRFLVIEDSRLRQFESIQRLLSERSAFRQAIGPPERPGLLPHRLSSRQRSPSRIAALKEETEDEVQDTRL
Protocol: CFTR inhibition potency was confirmed in MDCK cells by short-circuit current analysis. Snapwell inserts containing MDCK cells (transepithelial resistance 1000-2000 Ohms) were mounted in a standard Using chamber system. The basolateral membrane was permeabilized with 250 μg/ml amphotericin B. The hemichambers were filled with 5 mL of 65 mM NaCl, 65 mM Na-gluconate, 2.7 mM KCl, 1.5 mM KH2PO4, 1 mM CaCl2, 0.5 mM MgCl2, Na-Hepes and 10 mM glucose (apical), and 130 mM NaCl, 2.7 mM KCl, 1.5 mM KH2PO4, 1 mM CaCl2, 0.5 mM MgCl2, Na-Hepes and 10 mM glucose (basolateral) (pH 7.3). Short-circuit current was recorded continuously using a DVC-1000 voltage clamp (World Precision Instruments, Sarasota Fla.) with Ag/AgCl electrodes and 1 M KCl agar bridges.
In some experiments, MDCK cells in Snapwell inserts were cultured in medium containing 10 μM T08 or G07 for 1 or 48 hours. Compounds were washed out with medium for 1 hour before short-circuit current measurements.

[4] = test system: Pkd1^flox/−; Ksp-Cre mice; test: Pkd1flox/-;Ksp-Cre mouse model of autosomal dominant polycystic kidney disease; type: in vivo; details: for kidney weight in Pkd1flox/-;Ksp-Cre mice (in words): 3 days treatment, vs vehicle-treated; for total numbers of cysts (of >50 μm diameter) per kidney: H&E sections, control 797±69; for total numbers of cysts (of >50 μm diameter) per kidney / serum creatinine and urea (in words): Pkd1flox/-;Ksp-Cre mice; for serum creatinine and urea (in words): vs vehicle control, age 5 and 9 days
From the text: An in vivo model of kidney disease was employed to further explore the ability of CFTR inhibitors to reduce cyst formation in a vascular, perfused cellular environment. Pkd1^flox/−; Ksp-Cre mice were employed for this model, since these kidney-selective Pkd1 knockout mice manifest a fulminant course, with development of large cysts and renal failure in first 2 weeks of life, and represent a postnatal model of ADPKD. Pkd1 knockout mice normally die within 20 days. The Pkd1^flox/−; Ksp-Cre model is suitable, inter alia, for evaluating the efficacy of CFTR inhibitors on retarding the growth of cysts in the distal segments of the nephron, including medullary thick ascending limbs of the loops of Henle, distal convoluted tubule and collecting ducts.
Pkd1^flox mice and Ksp-Cre transgenic mice in a C57BL/6 background were generated as described (see, e.g., Shibazaki et al., J Am Soc Nephrol 13: 10-11, 2004; and Shao et al., J Am Soc Nephrol 13: 1837-1846, 2002). Ksp-Cre mice express Cre recombinase under the control of the Ksp-cadherin promoter (Shao et al.). Kidney-specific Pdk1 knock-out mice (Pkd1^flox/−; Ksp-Cre mice) were generated by cross-breeding Pkd1^flox/flox mice with Pkd1^+/−:Ksp-Cre mice. Neonatal mice (age 1 day) were genotyped by genomic PCR.
CFTR inhibitors (5-10 mg/kg/day) or saline DMSO vehicle control (0.05 mL/injection) were administrated by subcutaneous injection on the backs of neonatal mice four times a day for 3 or 7 days using a 1 cc insulin syringe, beginning at age 2 days (11 mice per group). Pkd1^flox/+; Ksp-Cre or Pkd1^flox/+ mice from the same litter were used as controls. During the treatment period, control and Pkd1^flox/−; Ksp-Cre mice, with or without CFTR inhibitor treatment, were indistinguishable in their activity and behavior. Body weight was measured at day 5 (3 days after treatment), at which time there was no difference in body weight in any of the mouse groups. Blood and urine samples were collected for measurements of CFTR inhibitor concentration and renal function. Kidneys were removed and weighed, and fixed for histological examination or homogenized for determination of CFTR inhibitor content.
To measure serum creatinine and urea (indicators of renal function), serum was obtained from whole blood by centrifugation at 5000×g for 5 min. Serum creatinine concentration was measured using a colorimetric assay kit (Cayman Chemical, Ann Arbor Mich.) following manufacturer's instructions. Urea concentration was measured using the colorimetric QUANTICHROM Urea Assay Kit (BioAssay Systems, Hayward, Calif.). Creatinine and urea concentrations were determined from optical densities using calibration standards.
For histological examination, kidneys were fixed with Bouin's fixative and embedded in paraffin. Three-μm thick sections were cut serially every 200 μm and stained with hematoxylin and eosin (H&E). Sections were imaged using a LEICA inverted epifluorescence microscope (DM 4000B) equipped with 2.5× objective lens and color CCD camera (Spot, model RT KE; Diagnostic Instruments Inc.). Cyst sizes in micrographs of kidney were determined using MATLAB 7.0 software.

[5] = values in text, forskolin-stimulated CFTR, read-out: IC50 (short-circuit current)

Compound	kidney length after 4 days in culture [1]	IC50 [2, 5]	IC50 [3]	cyst formation in embryonic kidneys (in words) ([1]; listed as T08)	IC50 ([2]; Table 3, inhibition potency, read-out: IC50)	inhibition kinetics (in words) ([2]; compared with CFTRinh-172 or Oxo-172, listed as Tetrazolo-172)	inhibition of CFTR in short-circuit current analysis (in words) ([2]; increasing concentration, forskolin-stimulated)	CFTR expression, short-circuit current after incubation (in words) [3]	kidney weight in Pkd1flox/-;Ksp-Cre mice (in words) [4]	total numbers of cysts (of >50 μm diameter) per kidney [4]	serum creatinine and urea (in words) [4]	cyst formation in embryonic kidneys (in words) [1]
O=C1/C(=C/c2ccc(-c3nn[nH]n3)cc2)SC(=S)N1c1cccc(C(F)(F)F)c1 [Compound 6, (Z)-5-(4-(1H-tetrazol-5-yl)benzylidene)-2-thioxo-3-(3-(trifluoromethyl)phenyl)thiazolidin-4-one]	7.4±0.5 mm	0.5 to 1 µM	~1 µM	–	–	–	–	–	–	–	–	–
O=C1/C(=C/c2ccc(-c3nnn[nH]3)cc2)SC(=S)N1c1cccc(C(F)(F)F)c1 [Compound 6, (Z)-5-(4-(1H-tetrazol-5-yl)benzylidene)-2-thioxo-3-(3-(trifluoromethyl)phenyl)thiazolidin-4-one]	–	0.8 µM	–	remarkably reduced cyst formation; also recorded: reduced the number and size of cysts	0.76 ± 0.2 µM	slower inhibition kinetics	dose dependant inhibition	did not alter CFTR expression	reduced kidney weight significantly	457±32	significantly reduced	–
N-2-naphthalenyl-2-hydroxyethyl-[(3,5-dibromo-2,4-dihydroxyphenyl)methylene]phenylglycinehydrazide [Compound G07]	7.1±0.4 mm	–	~1 µM	–	–	–	–	did not alter CFTR expression	reduced kidney weight significantly	316±45	significantly reduced	remarkably reduced cyst formation; also recorded: reduced the number and size of cysts
